ChEMBL document CHEMBL1134077, “Synthesis of potent and selective dopamine D(4) antagonists as candidate radioligands” (Bioorg Med Chem Lett, 2001)

Experiments:
[1] = target: 5-hydroxytryptamine receptor 6 (Homo sapiens, UniProt P50406); experiment: In vitro binding affinity to human 5-hydroxytryptamine 6 receptor
D(4) dopamine receptor = target: T1, D(4) dopamine receptor (Rattus norvegicus, UniProt P30729); experiment: In vitro binding affinity to rat Dopamine receptor D4 measured by displacement of the radioligand [3H]spiperone
T1 sequence (P30729 whole entry): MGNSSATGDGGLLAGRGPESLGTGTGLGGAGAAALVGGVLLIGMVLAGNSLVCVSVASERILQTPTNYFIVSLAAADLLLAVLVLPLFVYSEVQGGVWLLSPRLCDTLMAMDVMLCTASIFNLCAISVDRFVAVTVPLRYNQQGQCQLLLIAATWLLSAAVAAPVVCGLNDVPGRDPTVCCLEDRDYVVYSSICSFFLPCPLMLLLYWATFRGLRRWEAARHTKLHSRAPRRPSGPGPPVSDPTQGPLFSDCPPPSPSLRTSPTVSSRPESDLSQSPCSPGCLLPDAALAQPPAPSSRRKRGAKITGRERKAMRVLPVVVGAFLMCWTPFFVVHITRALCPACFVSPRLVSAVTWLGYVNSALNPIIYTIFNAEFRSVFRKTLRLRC

[2] = target: 5-hydroxytryptamine receptor 7 (Homo sapiens, UniProt P34969); experiment: In vitro binding affinity to human 5-hydroxytryptamine 7 receptor
5-hydroxytryptamine receptor 7, sequence (P34969 whole entry): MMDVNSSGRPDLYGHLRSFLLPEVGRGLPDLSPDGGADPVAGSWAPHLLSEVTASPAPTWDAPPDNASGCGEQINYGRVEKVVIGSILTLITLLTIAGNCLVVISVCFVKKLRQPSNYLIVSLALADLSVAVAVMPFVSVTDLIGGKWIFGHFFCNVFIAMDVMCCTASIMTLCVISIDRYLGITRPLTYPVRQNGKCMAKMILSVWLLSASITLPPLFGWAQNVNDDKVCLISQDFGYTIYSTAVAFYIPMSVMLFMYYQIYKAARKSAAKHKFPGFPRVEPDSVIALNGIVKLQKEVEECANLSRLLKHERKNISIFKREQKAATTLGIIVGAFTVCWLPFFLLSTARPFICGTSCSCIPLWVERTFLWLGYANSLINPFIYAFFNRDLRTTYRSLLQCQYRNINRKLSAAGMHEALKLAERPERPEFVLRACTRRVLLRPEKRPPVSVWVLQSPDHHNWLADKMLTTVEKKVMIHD

[3] = target: 5-hydroxytryptamine receptor 2A (Homo sapiens, UniProt P28223); experiment: Binding affinity to cloned human 5-hydroxytryptamine 2A receptor
5-hydroxytryptamine receptor 2A, sequence (P28223 whole entry): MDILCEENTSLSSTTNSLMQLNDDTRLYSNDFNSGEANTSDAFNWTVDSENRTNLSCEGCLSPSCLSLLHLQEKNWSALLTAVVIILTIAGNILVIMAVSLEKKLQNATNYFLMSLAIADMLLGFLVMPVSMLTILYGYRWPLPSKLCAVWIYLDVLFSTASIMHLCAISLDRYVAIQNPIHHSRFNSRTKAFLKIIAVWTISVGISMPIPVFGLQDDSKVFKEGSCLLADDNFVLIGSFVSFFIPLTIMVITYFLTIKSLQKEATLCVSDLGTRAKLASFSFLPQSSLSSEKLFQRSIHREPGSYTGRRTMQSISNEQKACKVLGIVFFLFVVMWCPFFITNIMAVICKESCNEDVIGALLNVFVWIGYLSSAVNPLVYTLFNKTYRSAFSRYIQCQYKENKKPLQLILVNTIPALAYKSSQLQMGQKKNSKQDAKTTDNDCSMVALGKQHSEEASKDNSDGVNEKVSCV

[4] = Binding affinity to cloned Nicotinic acetylcholine receptors; set-up: species or system Rattus norvegicus

5-hydroxytryptamine receptor 6, sequence (P50406 whole entry): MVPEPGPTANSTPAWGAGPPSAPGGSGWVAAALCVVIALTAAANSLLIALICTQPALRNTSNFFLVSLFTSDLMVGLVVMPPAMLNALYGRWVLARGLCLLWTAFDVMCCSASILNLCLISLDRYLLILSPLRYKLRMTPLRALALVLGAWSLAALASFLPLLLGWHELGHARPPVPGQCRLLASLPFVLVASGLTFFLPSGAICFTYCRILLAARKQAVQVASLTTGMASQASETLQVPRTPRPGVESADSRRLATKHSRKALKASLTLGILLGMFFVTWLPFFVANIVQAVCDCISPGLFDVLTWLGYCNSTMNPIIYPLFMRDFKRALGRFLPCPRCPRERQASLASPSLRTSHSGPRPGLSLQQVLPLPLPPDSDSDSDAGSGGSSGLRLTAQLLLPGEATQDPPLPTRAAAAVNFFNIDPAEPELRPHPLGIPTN

Compound: FC(F)(F)c1ccc(N2CCN(Cc3c[nH]c4ncccc34)CC2)cc1
- Ki [1]: 7110 nM
- Ki (D(4) dopamine receptor): 34.1 nM
- Ki [2]: 318 nM
- Ki [3]: 2790 nM

Compound: Clc1ccc(N2CCN(Cc3c[nH]c4ncccc34)CC2)cc1 [L-745870]
- Ki [4]: > 10000 nM
